Measurements published in patent US10858356B2, “Pyrazolopyridine derivative having GLP-1 receptor agonist effect” (Chugai Seiyaku Kabushiki Kaisha, priority 2016, dated 2020).

target: human GLP1R (Homo sapiens (Human), UniProt P43220); assay: In vitro cAMP signal activation in human GLP1R stably-expressing cell line (hGLP1R-HEK293); format: cell-based; details: cAMP concentration in hGLP1R-HEK293; 100% = 1 nM human GLP-1 (7-37)
Sequence (P43220 24-463): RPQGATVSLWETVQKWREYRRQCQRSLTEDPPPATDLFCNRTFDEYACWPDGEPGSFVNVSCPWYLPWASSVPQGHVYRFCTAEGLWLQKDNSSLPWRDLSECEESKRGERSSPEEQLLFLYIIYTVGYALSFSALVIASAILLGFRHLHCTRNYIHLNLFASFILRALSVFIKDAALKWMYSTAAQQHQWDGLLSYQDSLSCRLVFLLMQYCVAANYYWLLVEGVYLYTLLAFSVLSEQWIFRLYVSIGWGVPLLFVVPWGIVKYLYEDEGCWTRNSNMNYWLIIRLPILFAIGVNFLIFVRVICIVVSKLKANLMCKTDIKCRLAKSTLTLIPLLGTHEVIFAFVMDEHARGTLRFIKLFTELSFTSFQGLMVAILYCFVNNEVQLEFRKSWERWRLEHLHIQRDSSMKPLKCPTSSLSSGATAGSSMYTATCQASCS

| Structure (SMILES) | EC50 [nM] |
| --- | --- |
| COc1nccc(-c2ccc3c(c2)cc(C(=O)N2CCc4nn(-c5cc(C)c(F)c(C)c5)c(-n5ccn(-c6ccc7c(cnn7CC(C)(C)O)c6)c5=O)c4C2)n3[C@@]2(c3noc(=O)[nH]3)C[C@@H]2C)c1C [Example 6, 3-[(1S,2S)-1-[2-[2-(4-fluoro-3,5-dimethylphenyl)-3-[3-[1-(2-hydroxy-2-methylpropyl)indazol-5-yl]-2-oxoimidazol-1-yl]-6,7-dihydro-4H-pyrazolo[4,3-c]pyridine-5-carbonyl]-5-(2-methoxy-3-methylpyridin-4-yl)indol-1-yl]-2-methylcyclopropyl]-4H-1,2,4-oxadiazol-5-one] | 2.9 |
| COCCN(C(C)=O)C12C3C4C1C1C2C3C41n1ccn(-c2c3c(nn2-c2cc(C)c(F)c(C)c2)CCN(C(=O)c2cc4cc(C5CCOCC5)ccc4n2[C@@]2(c4noc(=O)[nH]4)C[C@@H]2C)[C@H]3C)c1=O (stereo partly drawn) [compound 57, N-[4-[3-[(4S)-2-(4-fluoro-3,5-dimethylphenyl)-4-methyl-5-[1-[(1S,2S)-2-methyl-1-(5-oxo-4H-1,2,4-oxadiazol-3-yl)cyclopropyl]-5-(oxan-4-yl)indole-2-carbonyl]-6,7-dihydro-4H-pyrazolo[4,3-c]pyridin-3-yl]-2-oxoimidazol-1-yl]cuban-1-yl]-N-(2-methoxyethyl)acetamide] | 8.1 |
| Cc1cc(-n2ccn(-c3c4c(nn3-c3cc(C)c(F)c(C)c3)CCN(C(=O)c3cc5cc(C6CCOCC6)ccc5n3[C@@]3(c5noc(=O)[nH]5)C[C@@H]3C)[C@H]4C)c2=O)ccc1-c1cc(N(C)C)ncn1 [Example 25, 3-[(1S,2S)-1-[2-[(4S)-3-[3-[4-[6-(dimethylamino)pyrimidin-4-yl]-3-methylphenyl]-2-oxoimidazol-1-yl]-2-(4-fluoro-3,5-dimethylphenyl)-4-methyl-6,7-dihydro-4H-pyrazolo[4,3-c]pyridine-5-carbonyl]-5-(oxan-4-yl)indol-1-yl]-2-methylcyclopropyl]-4H-1,2,4-oxadiazol-5-one] | 4 |
| Cc1cc(-n2nc3c(c2-n2ccn(-c4ccc5c(cnn5CC(F)(F)F)c4)c2=O)CN(C(=O)c2cc4cc(C5CCOCC5)ccc4n2[C@@]2(c4noc(=O)[nH]4)C[C@@H]2C)CC3)cc(C)c1F [Example 10, 3-[(1S,2S)-1-[2-[2-(4-fluoro-3,5-dimethylphenyl)-3-[2-oxo-3-[1-(2,2,2-trifluoroethyl)indazol-5-yl]imidazol-1-yl]-6,7-dihydro-4H-pyrazolo[4,3-c]pyridine-5-carbonyl]-5-(oxan-4-yl)indol-1-yl]-2-methylcyclopropyl]-4H-1,2,4-oxadiazol-5-one] | 2.8 |
| Cc1cc(C)cc(-n2nc3c(c2-n2ccn(-c4ccc5c(cnn5C)c4)c2=O)CN(C(=O)c2cc4cc(C5CCOC(C)(C)C5)ccc4n2[C@@]2(c4noc(=O)[nH]4)C[C@@H]2C)CC3)c1 (some centres unmarked) [compound 60] | 4.9 |
| CC[C@H]1C[C@]1(c1noc(=O)[nH]1)n1c(C(=O)N2CCc3nn(-c4cc(C)c(F)c(C)c4)c(-n4ccn(-c5ccc6c(cnn6C)c5)c4=O)c3C2)cc2cc(C3CCOCC3)ccc21 [compound 78, 3-[(1S,2S)-2-Ethyl-1-[2-[2-(4-fluoro-3,5-dimethylphenyl)-3-[3-(1-methylindazol-5-yl)-2-oxoimidazol-1-yl]-6,7-dihydro-4H-pyrazolo[4,3-c]pyridine-5-carbonyl]-5-(oxan-4-yl)indol-1-yl]cyclopropyl]-4H-1,2,4-oxadiazol-5-one] | 3.6 |
| Cc1cc(-n2nc3c(c2-n2ccn(-c4ccc5c(cnn5C)c4F)c2=O)[C@H](C)N(C(=O)c2cc4cc([C@H]5CCOC(C)(C)C5)ccc4n2[C@@]2(c4noc(=O)[nH]4)C[C@@H]2C)CC3)ccc1F [compound 69, 3-[(1S,2S)-1-[5-[(4S)-2,2-dimethyloxan-4-yl]-2-[(4S)-3-[3-(4-fluoro-1-methylindazol-5-yl)-2-oxoimidazol-1-yl]-2-(4-fluoro-3-methylphenyl)-4-methyl-6,7-dihydro-4H-pyrazolo[4,3-c]pyridine-5-carbonyl]indol-1-yl]-2-methylcyclopropyl]-4H-1,2,4-oxadiazol-5-one] | 2.8 |
| Cc1cc(-n2nc3c(c2-n2ccn(-c4ccc5c(cnn5C)c4)c2=O)CN(C(=O)c2cc4cc(C5CCOC6(CCCC6)C5)ccc4n2[C@@]2(c4noc(=O)[nH]4)C[C@@H]2C)CC3)cc(C)c1F (stereo partly drawn) [compound 75, 3-[(1S,2S)-1-[2-[2-(4-fluoro-3,5-dimethylphenyl)-3-[3-(1-methylindazol-5-yl)-2-oxoimidazol-1-yl]-6,7-dihydro-4H-pyrazolo[4,3-c]pyridine-5-carbonyl]-5-(6-oxaspiro[4.5]decan-9-yl)indol-1-yl]-2-methylcyclopropyl]-4H-1,2,4-oxadiazol-5-one] | 6.2 |

Stronger by EC50, values ahead:

| EC50 [nM] | Structure (SMILES) |
| --- | --- |
| 1.9 | COc1cc(-n2ccn(-c3c4c(nn3-c3cc(C)c(F)c(C)c3)CCN(C(=O)c3cc5cc(C6CCOCC6)ccc5n3[C@@]3(c5noc(=O)[nH]5)C[C@@H]3C)[C@H]4C)c2=O)ccc1OC(C)(C)CO [Example 20, 3-[(1S,2S)-1-[2-[(4S)-2-(4-fluoro-3,5-dimethylphenyl)-3-[3-[4-(1-hydroxy-2-methylpropan-2-yl)oxy-3-methoxyphenyl]-2-oxoimidazol-1-yl]-4-methyl-6,7-dihydro-4H-pyrazolo[4,3-c]pyridine-5-carbonyl]-5-(oxan-4-yl)indol-1-yl]-2-methylcyclopropyl]-4H-1,2,4-oxadiazol-5-one] |
| 0.74 | COCCn1ncc2cc(-n3ccn(-c4c5c(nn4-c4cc(C)c(F)c(C)c4)CCN(C(=O)c4cc6cc([C@H]7CCOC(C)(C)C7)ccc6n4[C@@]4(c6noc(=O)[nH]6)C[C@@H]4C)[C@H]5C)c3=O)ccc21 [Example 31, 3-[(1S,2S)-1-[5-[(4S)-2,2-dimethyloxan-4-yl]-2-[(4S)-2-(4-fluoro-3,5-dimethylphenyl)-3-[3-[1-(2-methoxyethyl)indazol-5-yl]-2-oxoimidazol-1-yl]-4-methyl-6,7-dihydro-4H-pyrazolo[4,3-c]pyridine-5-carbonyl]indol-1-yl]-2-methylcyclopropyl]-4H-1,2,4-oxadiazol-5-one] |
| 2.3 | Cc1cc(-n2nc3c(c2-n2ccn(-c4ccc5c(cnn5[C@H]5CCOC5)c4)c2=O)[C@H](C)N(C(=O)c2cc4cc(-c5ccnc(C)c5F)ccc4n2[C@@]2(c4noc(=O)[nH]4)C[C@@H]2C)CC3)cc(C)c1F [Example 14, 3-[(1S,2S)-1-[2-[(4S)-2-(4-fluoro-3,5-dimethylphenyl)-4-methyl-3-[2-oxo-3-[1-[(3S)-oxolan-3-yl]indazol-5-yl]imidazol-1-yl]-6,7-dihydro-4H-pyrazolo[4,3-c]pyridine-5-carbonyl]-5-(3-fluoro-2-methylpyridin-4-yl)indol-1-yl]-2-methylcyclopropyl]-4H-1,2,4-oxadiazol-5-one] |
| 1 | Cc1cc(-n2nc3c(c2-n2ccn(-c4ccc5c(cnn5CC5(C)COC5)c4)c2=O)[C@H](C)N(C(=O)c2cc4cc(C5CCOCC5)ccc4n2[C@@]2(c4noc(=O)[nH]4)C[C@@H]2C)CC3)cc(C)c1F [Example 17, 3-[(1S,2S)-1-[2-[(4S)-2-(4-fluoro-3,5-dimethylphenyl)-4-methyl-3-[3-[1-[(3-methyloxetan-3-yl)methyl]indazol-5-yl]-2-oxoimidazol-1-yl]-6,7-dihydro-4H-pyrazolo[4,3-c]pyridine-5-carbonyl]-5-(oxan-4-yl)indol-1-yl]-2-methylcyclopropyl]-4H-1,2,4-oxadiazol-5-one] |
| 1.1 | COCCn1ncc2cc(-n3ccn(-c4c5c(nn4-c4cc(C)c(F)c(C)c4)CCN(C(=O)c4cc6cc(-c7ccnc(OC)c7C)ccc6n4[C@@]4(c6noc(=O)[nH]6)C[C@@H]4C)[C@H]5C)c3=O)ccc21 [Example 11, 3-[(1S,2S)-1-[2-[(4S)-2-(4-fluoro-3,5-dimethylphenyl)-3-[3-[1-(2-methoxyethyl)indazol-5-yl]-2-oxoimidazol-1-yl]-4-methyl-6,7-dihydro-4H-pyrazolo[4,3-c]pyridine-5-carbonyl]-5-(2-methoxy-3-methylpyridin-4-yl)indol-1-yl]-2-methylcyclopropyl]-4H-1,2,4-oxadiazol-5-one] |
| 1.8 | COCCCN(C(C)=O)c1ccc(-n2ccn(-c3c4c(nn3-c3cc(C)c(F)c(C)c3)CCN(C(=O)c3cc5cc(C6CCOCC6)ccc5n3[C@@]3(c5noc(=O)[nH]5)C[C@@H]3C)C4)c2=O)cc1OC [Example 9, N-[4-[3-[2-(4-fluoro-3,5-dimethylphenyl)-5-[1-[(1S,2S)-2-methyl-1-(5-oxo-4H-1,2,4-oxadiazol-3-yl)cyclopropyl]-5-(oxan-4-yl)indole-2-carbonyl]-6,7-dihydro-4H-pyrazolo[4,3-c]pyridin-3-yl]-2-oxoimidazol-1-yl]-2-methoxyphenyl]-N-(3-methoxypropyl)acetamide] |
| 2.4 | COCCn1ncc2cc(-n3ccn(-c4c5c(nn4-c4cc(C)c(F)c(C)c4)CCN(C(=O)c4cc6cc(C7CCOC(C)(C)C7)ccc6n4[C@@]4(c6noc(=O)[nH]6)C[C@@H]4C)C5)c3=O)ccc21 (stereo partly drawn) [compound 76, 3-[(1S,2S)-1-[5-(2,2-dimethyloxan-4-yl)-2-[2-(4-fluoro-3,5-dimethylphenyl)-3-[3-[1-(2-methoxyethyl)indazol-5-yl]-2-oxoimidazol-1-yl]-6,7-dihydro-4H-pyrazolo[4,3-c]pyridine-5-carbonyl]indol-1-yl]-2-methylcyclopropyl]-4H-1,2,4-oxadiazol-5-one] |
| 0.51 | COCCn1ncc2cc(-n3ccn(-c4c5c(nn4-c4cc(C)c(F)c(C)c4)CCN(C(=O)c4cc6cc(C7CCOCC7)ccc6n4[C@@]4(c6noc(=O)[nH]6)C[C@@H]4C)[C@H]5C)c3=O)ccc21 [Example 16, 3-[(1S,2S)-1-[2-[(4S)-2-(4-fluoro-3,5-dimethylphenyl)-3-[3-[1-(2-methoxyethyl)indazol-5-yl]-2-oxoimidazol-1-yl]-4-methyl-6,7-dihydro-4H-pyrazolo[4,3-c]pyridine-5-carbonyl]-5-(oxan-4-yl)indol-1-yl]-2-methylcyclopropyl]-4H-1,2,4-oxadiazol-5-one] |
| 2.5 | Cc1cc(-n2nc3c(c2-n2ccn(-c4ccc5c(cnn5[C@@H]5CCOC5)c4)c2=O)CN(C(=O)c2cc4cc(C5CCOCC5)ccc4n2[C@@]2(c4noc(=O)[nH]4)C[C@@H]2C)CC3)cc(C)c1F [Example 8, 3-[(1S,2S)-1-[2-[2-(4-fluoro-3,5-dimethylphenyl)-3-[2-oxo-3-[1-[(3R)-oxolan-3-yl]indazol-5-yl]imidazol-1-yl]-6,7-dihydro-4H-pyrazolo[4,3-c]pyridine-5-carbonyl]-5-(oxan-4-yl)indol-1-yl]-2-methylcyclopropyl]-4H-1,2,4-oxadiazol-5-one] |
